The source of these data is ChEMBL document CHEMBL5727242, “N-Methylbenzimidazoles as mIDH1 inhibitors” (2019).

The structures appear in SMILES notation.

The nature of this assay: Biological Assay: Mutant IDH1 R132H Biochemical Assay mIDH1 catalyzes the NADPH-dependent reduction of alpha-ketoglutarate (a-KG) to (2R)-2-hydroxyglutarate (2-HG). NADPH consumption was measured by luminescent readout.The biochemical reactions were performed at 32° C. in 384-well plates using a reaction volume of 41 μL and the following assay buffer conditions: 50 mM Tris pH 7.5, 100 mM NaCl, 20 mM MgCl2, 0.05% BSA, 0.01% Brij, 1 μM NADPH, and 250 μM α-KG. The IDH1 R132H enzyme was used in a final concentration of 1.5 nM. Test compounds were used in a concentration range between 0.002 and 10 μM. The final DMSO concentration was 2.4%.The reaction was incubated for 30 minutes, then 40 μL of detection mix (0.75 μg/ml Luciferase, 0.02 U/ml Oxidoreductase, 4 μg/mL FMN, 2 μL/ml decanal/ethanol, 50 mM Tris pH 7.5, 0.5% Glycerin, 0.01% Tween-20, 0.05% BSA) was added. Luminescence was measured on a luminescent reader (10 seconds measuring time, 1 second integration period, 30% sensitivity). The decrease in luminescence is proportional to mIDH1 activity. IC50 values are determined by interpolation from plots of relative luminescence versus inhibitor concentration.

By IC50 is commonly meant the concentration needed to halve the response being measured. Read a high IC50 as weaker potency in that assay. As to `COC(=O)c1ccc2c(c1)nc(Nc1ccc(OC(F)(F)F)cc1)n2[C@@H]1C[C@H](C)CC[C@H]1C(C)C`, 38 nM corresponded to half-maximal inhibition (IC50).
